Data: patent publication EP2257297B1, “COMPOUNDS FOR USE IN THE TREATMENT OF ACNE, SEBORRHOEA AND SEBHORROEIC DERMATITIS, OR FOR REDUCING SEBUM SECRETION” (priority 2008, dated 2009)

Target: T1, human MC5R (Homo sapiens, UniProt P33032)
T1 construct: purchased Perkin Elmer RBXMC5M400UA
Test: Human MC5R radioligand binding assay ([125I] NDP-MSH displacement, hMC5R membranes)
Details: not given
Summary of the method: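 Bound ligand collected by filtration on PEI-soaked GF/A filters and counted. Data fitted to a single-site competition model with fixed Hill coefficient to give EC50.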

T1 sequence (P33032 whole entry): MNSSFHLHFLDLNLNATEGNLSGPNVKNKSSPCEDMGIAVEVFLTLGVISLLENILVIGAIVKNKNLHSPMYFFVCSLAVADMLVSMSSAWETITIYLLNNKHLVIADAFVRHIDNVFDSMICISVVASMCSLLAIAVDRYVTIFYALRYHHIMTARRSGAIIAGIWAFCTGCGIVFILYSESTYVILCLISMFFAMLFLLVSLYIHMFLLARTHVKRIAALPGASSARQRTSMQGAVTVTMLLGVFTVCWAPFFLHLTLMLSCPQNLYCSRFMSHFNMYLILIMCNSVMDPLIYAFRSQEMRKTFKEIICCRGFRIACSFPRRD

Row | IC50 [nM] | SMILES
1 | < 10000 | CC[C@@H](CN1CC[C@@H](CNC(=O)c2ccc(Cl)c(Cl)c2)N[C@@H](CCN)C1=O)C(C)C (racemic) [Compound 489, N-(((3S,5S)-3-(2-aminoethyl)-1-((R)-2-ethyl-3-methylbutyl)-2-oxo-1,4-diazepan-5-yl)methyl)-3,4-dichlorobenzamide]

Same assay, conditions: hMC5R assay as in Example 102; compounds tested as trifluoroacetate or hydrochloride salts, or as free base

Row | SMILES | IC50 [nM]
2 | NCCC[C@@H]1N[C@H](CNC(=O)/C=C/c2ccc(Cl)cc2)CCN(CC(c2ccccc2)c2ccccc2)C1=O [Compound 214, (E)-N-(((3S,5S)-3-(3-aminopropyl)-1-(2,2-diphenylethyl)-2-oxo-1,4-diazepan-5-yl)methyl)-3-(4-chlorophenyl)acrylamide] | < 100
3 | NCCC[C@@H]1N[C@H](CNC(=O)c2cc(-c3ccco3)on2)CCN(CC(c2ccccc2)c2ccccc2)C1=O [Compound 241, N-(((3S,5S)-3-(3-aminopropyl)-1-(2,2-diphenylethyl)-2-oxo-1,4-diazepan-5-yl)methyl)-5-(furan-2-yl)isoxazole-3-carboxamide] | < 1000
4 | CCC(CC)CN1CC[C@@H](CNC(=O)c2ccc3ccccc3c2)N[C@@H](CCN)C1=O [Compound 54, N-(((3S,5S)-3-(2-aminoethyl)-1-(2-ethylbutyl)-2-oxo-1,4-diazepan-5-yl)methyl)-2-naphthamide] | < 1000
5 | NCCC[C@@H]1N[C@H](CNC(=O)c2ccc(-c3ccc(Cl)cc3)o2)CCN(CC(c2ccccc2)c2ccccc2)C1=O [Compound 237, N-(((3S,5S)-3-(3-aminopropyl)-1-(2,2-diphenylethyl)-2-oxo-1,4-diazepan-5-yl)methyl)-5-(4-chlorophenyl)furan-2-carboxamide] | < 100
6 | NC[C@@H]1N[C@H](CNC(=O)c2ccc3ccccc3c2)CCN(Cc2cc(Cl)cc(Cl)c2)C1=O [Compound 365, N-(((3S,5S)-3-(aminomethyl)-1-(3,5-dichlorobenzyl)-2-oxo-1,4-diazepan-5-yl)methyl)-2-naphthamide] | < 1000
7 | Cc1ccc(C(=O)NC[C@@H]2CCN(CC(c3ccccc3)c3ccccc3)C(=O)[C@H](CCCN3CCCCC3)N2)cc1C [Compound 270, N-(((3S,5S)-1-(2,2-diphenylethyl)-2-oxo-3-(3-(piperidin-1-yl)propyl)-1,4-diazepan-5-yl)methyl)-3,4-dimethylbenzamide] | < 100
8 | N=C(N)NCCC[C@@H]1N[C@H](CNC(=O)/C=C/c2cccc(C(F)(F)F)c2)CCN(CC(c2ccccc2)c2ccccc2)C1=O [Compound 192, (E)-N-(((3S,5S)-1-(2,2-diphenylethyl)-3-(3-guanidinopropyl)-2-oxo-1,4-diazepan-5-yl)methyl)-3-(3-(trifluoromethyl)phenyl)acrylamide] | < 1000
9 | Cc1ccc(C(=O)NC[C@@H]2CCN(CC(c3ccccc3)c3ccccc3)C(=O)[C@H](CCN)N2)cc1C [Compound 281, N-(((3S,5S)-3-(2-aminoethyl)-1-(2,2-diphenylethyl)-2-oxo-1,4-diazepan-5-yl)methyl)-3,4-dimethylbenzamide] | < 1000
10 | NCC[C@@H]1N[C@H](CCNC(=O)c2ccc(Cl)c(Cl)c2)CCN(CC(c2ccccc2)c2ccccc2)C1=O [Compound 309, 3,4-dichloro-N-(2-((3S,5R)-1-(2,2-diphenylethyl)-2-oxo-3-(2-aminoethyl)-1,4-diazepan-5-yl)ethyl)benzamide] | < 1000
11 | N=C(N)NCCC[C@@H]1N[C@H](CNC(=O)c2ccc3[nH]nnc3c2)CCN(CC(c2ccccc2)c2ccccc2)C1=O [Compound 150, N-(((3S,5S)-1-(2,2-diphenylethyl)-3-(3-guanidinopropyl)-2-oxo-1,4-diazepan-5-yl)methyl)-1H-benzo[d][1,2,3]triazole-5-carboxamide] | < 10000
12 | O=C(NCC[C@@H]1CCN(CC(c2ccccc2)c2ccccc2)C(=O)[C@H](CCN2CCCCC2)N1)c1ccccc1 [Compound 311, N-(2-((3S,5R)-1-(2,2-diphenylethyl)-2-oxo-3-(2-(piperidin-1-yl)ethyl)-1,4-diazepan-5-yl)ethyl)benzamide] | < 10000
13 | O=C(/C=C/c1ccc(Cl)cc1)NC[C@@H]1CCN(Cc2cc(Cl)cc(Cl)c2)C(=O)[C@H](CN2CCCCC2)N1 [Compound 368, (E)-3-(4-chlorophenyl)-N-(((3S,5S)-1-(3,5-dichlorobenzyl)-2-oxo-3-(piperidin-1-ylmethyl)-1,4-diazepan-5-yl)methyl)acrylamide] | < 100
14 | CC(C)N(CC[C@@H]1N[C@H](CCNC(=O)c2ccc(Cl)c(Cl)c2)CCN(CC(c2ccccc2)c2ccccc2)C1=O)C(C)C [Compound 363, 3,4-dichloro-N-(2-((3S,5R)-3-(2-(diisopropylamino)ethyl)-1-(2,2-diphenylethyl)-2-oxo-1,4-diazepan-5-yl)ethyl)benzamide] | < 10000

The next lines start with the values.

Row | IC50 [nM] | SMILES
15 | < 1000 | N=C(N)NCCC[C@@H]1N[C@H](CNC(=O)c2ccc3ncsc3c2)CCN(CC(c2ccccc2)c2ccccc2)C1=O [Compound 178, N-(((3S,5S)-1-(2,2-diphenylethyl)-3-(3-guanidinopropyl)-2-oxo-1,4-diazepan-5-yl)methyl)benzo[d]thiazole-6-carboxamide]
16 | < 1000 | CC(C)(C)c1ccc(C(=O)NC[C@@H]2CCN(CC(c3ccccc3)c3ccccc3)C(=O)[C@H](CCCNC(=N)N)N2)cc1 [Compound 145, 4-tert-butyl-N-(((3S,5S)-1-(2,2-diphenylethyl)-3-(3-guanidinopropyl)-2-oxo-1,4-diazepan-5-yl)methyl)benzamide]
17 | < 10 | N=C(N)NCCC[C@@H]1N[C@H](CNC(=O)/C=C/c2ccc(Br)cc2)CCN(CC(c2ccccc2)c2ccccc2)C1=O [Compound 210, (E)-3-(4-bromophenyl)-N-(((3S,5S)-1-(2,2-diphenylethyl)-3-(3-guanidinopropyl)-2-oxo-1,4-diazepan-5-yl)methyl)acrylamide]
18 | < 10000 | N=C(N)NCCC[C@@H]1N[C@H](CNS(=O)(=O)c2ccc3ccccc3c2)CCN(CC(c2ccccc2)c2ccccc2)C1=O [Compound 50, N-(((3S,5S)-1-(2,2-diphenylethyl)-3-(3-guanidinopropyl)-2-oxo-1,4-diazepan-5-yl)methyl)-2-naphthalene-2-sulfonamide]
19 | < 10000 | N=C(N)NCCC[C@@H]1N[C@H](CNC(=O)Cc2ccc(Cl)c(Cl)c2)CCN(CC(c2ccccc2)c2ccccc2)C1=O [Compound 157, 2-(3,4-dichlorophenyl)-N-(((3S,5S)-1-(2,2-diphenylethyl)-3-(3-guanidinopropyl)-2-oxo-1,4-diazepan-5-yl)methyl)acetamide]
20 | < 100 | CC(C)NCCC[C@@H]1N[C@H](CNC(=O)c2ccc3ccccc3c2)CCN(CC(c2ccccc2)c2ccccc2)C1=O [Compound 65, N-(((3S,5S)-1-(2,2-diphenylethyl)-3-(3-(isopropylamino)propyl)-2-oxo-1,4-diazepan-5-yl)methyl)-2-naphthamide]
21 | < 100 | N=C(N)NCCC[C@@H]1N[C@H](CNC(=O)/C=C/c2c(F)cccc2F)CCN(CC(c2ccccc2)c2ccccc2)C1=O [Compound 208, (E)-3-(2,6-difluorophenyl)-N-(((3S,5S)-1-(2,2-diphenylethyl)-3-(3-guanidinopropyl)-2-oxo-1,4-diazepan-5-yl)methyl)acrylamide]
22 | < 1000 | COc1cc(C(=O)NC[C@@H]2CCN(CC(c3ccccc3)c3ccccc3)C(=O)[C@H](CCCNC(=N)N)N2)c(OC)c2ccccc12 [Compound 215, N-(((3S,5S)-1-(2,2-diphenylethyl)-3-(3-guanidinopropyl)-2-oxo-1,4-diazepan-5-yl)methyl)-1,4-dimethoxy-2-naphthamide]
23 | < 100 | NCCC[C@@H]1N[C@H](CNC(=O)c2ccc3cc(F)ccc3c2)CCN(CC(c2ccccc2)c2ccccc2)C1=O [Compound 221, N-(((3S,5S)-3-(3-aminopropyl)-1-(2,2-diphenylethyl)-2-oxo-1,4-diazepan-5-yl)methyl)-6-fluoro-2-naphthamide]
24 | < 1000 | N=C(N)NCCC[C@@H]1N[C@H](CNC(=O)c2ccc(-c3ccccc3)o2)CCN(CC(c2ccccc2)c2ccccc2)C1=O [Compound 179, N-(((3S,5S)-1-(2,2-diphenylethyl)-3-(3-guanidinopropyl)-2-oxo-1,4-diazepan-5-yl)methyl)-5-phenylfuran-2-carboxamide]
25 | < 1000 | NCCCC[C@@H]1N[C@H](CNC(=O)c2ccc3ccccc3c2)CCN(CC(c2ccccc2)c2ccccc2)C1=O [Compound 126, N-(((3S,5S)-3-(4-aminobutyl)-1-(2,2-diphenylethyl)-2-oxo-1,4-diazepan-5-yl)methyl)-2-naphthamide]
26 | < 10000 | N=C(N)NCCC[C@@H]1N[C@H](CNC(=O)c2ccc3cc(N)ccc3c2)CCN(CC(c2ccccc2)c2ccccc2)C1=O [Compound 218, 6-amino-N-(((3S,5S)-1-(2,2-diphenylethyl)-3-(3-guanidinopropyl)-2-oxo-1,4-diazepan-5-yl)methyl)-2-naphthamide]

Same assay, conditions: hMC5R binding assay as in Example 102; compounds tested as trifluoroacetate or hydrochloride salts, or as free base

Row | IC50 [nM] | SMILES
27 | < 100 | CC[C@H](CN1CC[C@H](CNC(=O)c2ccc3cc(Cl)ccc3c2)N[C@@H](CCN2CCCCC2)C1=O)c1ccccc1 [Compound 581, 6-chloro-N-(((3S,5R)-2-oxo-1-((S)-2-phenylbutyl)-3-(2-(piperidin-1-yl)ethyl)-1,4-diazepan-5-yl)methyl)-2-naphthamide]
28 | < 10000 | CC[C@H](CN1CC[C@H](CNC(=O)c2ccc3cc(Cl)ccc3c2)N[C@H](CCN2CCCCC2)C1=O)c1ccccc1 [Compound 585, 6-chloro-N-(((3R,5R)-2-oxo-1-((S)-2-phenylbutyl)-3-(2-(piperidin-1-yl)ethyl)-1,4-diazepan-5-yl)methyl)-2-naphthamide]
29 | < 1000 | CC[C@@H](CN1CC[C@H](CNC(=O)c2ccc3cc(Cl)ccc3c2)N[C@@H](CCN2CCCCC2)C1=O)c1ccccc1 [Compound 583, 6-chloro-N-(((3S,5R)-2-oxo-1-((R)-2-phenylbutyl)-3-(2-(piperidin-1-yl)ethyl)-1,4-diazepan-5-yl)methyl)-2-naphthamide]

Row | SMILES | IC50 [nM]
30 | CC[C@H](CN1CC[C@@H](CNC(=O)c2ccc3cc(Cl)ccc3c2)N[C@@H](CCN2CCCCC2)C1=O)c1ccccc1 [Compound 569, 6-chloro-N-(([5-^13C,4-^15N](3S,5S)-2-oxo-1-((S)-2-phenylbutyl)-3-(2-(piperidin-1-yl)ethyl)-1,4-diazepan-5-yl)[^13C]methyl)-2-naphthamide] | < 10
